Key:
[1] = Evaluation of chemical stability, UV-Vis spectra of film standing in atmospheric air; type: physicochemical; details: vacuum-deposited film 100 nanometers, one week in atmospheric air
From the text: A film having a thickness of 100 nanometers formed by performing vacuum deposition of the compound synthesized in Example 4 was allowed to stand for one week in atmospheric air. The results obtained by measuring UV-Vis spectra (device used: Jasco V-570 Spectrometer, made by JASCO Corporation) over time during the period are shown in FIG. 3. […] According to the above, the compound of the present invention is clearly found to be chemically stable too.

[2] = Evaluation of thermal stability, TG/DTA; type: physicochemical; details: heating 5° C. per minute
[3] = Evaluation of thermal stability, DSC; type: physicochemical; details: heating 5° C. per minute

## CCCCCCCCCCc1ccc2cc3c(cc2c1)sc1cc2c(cc13)sc1cc3cc(CCCCCCCCCC)ccc3cc12 [Example 4, 3,11-didecyldinaphtho[2,3-d:2′,3′-d′]benzo[1,2-b:4,5-b′]dithiophene]
[1]
  change of UV-Vis spectrum of film: no change of the spectrum was observed
other
  melting point: 263 to 264 °C
[2]
  5% weight reduction temperature: 426 °C

## CCCCCCCCCCc1ccc2cc3c(cc2c1)oc1cc2c(cc13)oc1cc3cc(CCCCCCCCCC)ccc3cc12 [Example 3, 3,11-didecyldinaphtho[2,3-d:2′,3′-d′]benzo[1,2-b:4,5-b′]difuran]
other
  melting point: ≥ 350 °C

## CCCCCCCCCCc1ccc2cc3c(cc2c1)sc1cc2cc4c(cc2cc13)sc1cc2cc(CCCCCCCCCC)ccc2cc14 [Example 7]
[3]
  phase transition points: no phase transition point was observed
[1]
  change of UV-Vis spectrum of film: no change of the spectrum was observed
other
  melting point: ≥ 300 °C
[2]
  5% weight reduction temperature: 450 °C

## CCCCCCCCCCc1ccc2cc3oc4cc5c(cc4c3cc2c1)oc1cc2ccc(CCCCCCCCCC)cc2cc15 [Example 1, 2,10-didecyldinaphtho[2,3-d:2′,3′-d′]benzo[1,2-b:4,5-b′]difuran]
other
  melting point: 316 to 317 °C

## CCCCCCc1ccc2cc3c(cc2c1)sc1cc2c(cc13)sc1cc3cc(CCCCCC)ccc3cc12 [Example 5, 3,11-dihexyldinaphtho[2,3-d:2′,3′-d′]benzo[1,2-b:4,5-b′]dithiophene]
other
  melting point: > 300 °C

## CCCCCCCCCCc1ccc2cc3sc4cc5c(cc4c3cc2c1)sc1cc2ccc(CCCCCCCCCC)cc2cc15 [Example 2, 2,10-didecyldinaphtho[2,3-d:2′,3′-d′]benzo[1,2-b:4,5-b′]dithiophene]
other
  melting point: 285 to 286 °C

Reference: US9853225B2, “Chalcogen-containing organic compound and a use thereof” (JNC CORPORATION, priority 2013, dated 2017)
